Experimental data reported in patent US4263427A, “Monensin urethane derivatives” (priority 1979, dated 1981).
Values after ≈ are worked out from the molar mass of the structure shown. Like-named read-outs stand apart in the source and are kept apart here.

Columns and labels:
Bacillus megaterium 8CU = assay: Minimum Inhibitory Concentration, agarwell diffusion assay (Table 6); type: cell-based; details: for MIC: Priestia megaterium, 8CU, read-out: Minimum Inhibitory Concentration, Bacillus megaterium 8CU; for Minimum Inhibitory Concentration: Bacillus megaterium 8CU
Description: (§1) (a) Lowest twofold dilution giving zone of inhibition in the agarwell
(§2) (b) NRRL collection number, all the rest ate ATCC numbers.

Bacillus sp. E 27859 = assay: as above; type: cell-based; details: for MIC: Bacillus, SP.E27859, Bacillus sp. E 27859, read-out: Minimum Inhibitory Concentration
Description: as §1, §2

Bacillus sp. TA 27860 = assay: as above; type: cell-based; details: for MIC: Bacillus, SP.TA27860, Bacillus sp. TA 27860, read-out: Minimum Inhibitory Concentration
Description: as §1, §2

Bacillus subtilis 583 = assay: as above; type: cell-based; details: for MIC: Bacillus subtilis, 583, Bacillus subtilis 583 (NRRL), read-out: Minimum Inhibitory Concentration
Description: as §1, §2

MycoBacterium phiel 355 = assay: as above; type: cell-based; details: for MIC: Mycobacterium, 355, read-out: Minimum Inhibitory Concentration, MycoBacterium phiel 355
Description: as §1, §2

[1] = tested on: Paceilomyces variotl 25820; assay: as above; type: cell-based
Description: as §1, §2

Sarcina lutca 9341 = assay: as above; type: cell-based; details: for MIC: Sarcina, 9341, read-out: Minimum Inhibitory Concentration, Sarcina lutca 9341
Description: as §1, §2

Staph. aureus 6538 = assay: as above; type: cell-based; details: for MIC: Staphylococcus aureus, 6538, read-out: Minimum Inhibitory Concentration, Staph. aureus 6538
Description: as §1, §2

[2] = tested on: Streptococcus cellulosac 3313; assay: as above; type: cell-based; details: for MIC: Streptococcus, 3313, read-out: Minimum Inhibitory Concentration, Streptococcus cellulosac 3313
Description: as §1, §2

[3] = tested on: Streptococcus faecium 8043; assay: as above; type: cell-based; details: for MIC: Enterococcus faecium, 8043, Streptococcus faecium 8043, read-out: Minimum Inhibitory Concentration
Description: as §1, §2

Treponema hyodysenteriae = assay: Activity against Treponema hyodysenteriae (MIC, blood agar plates); type: cell-based; details: 42° C., anaerobic
Description: Testing for activity against Treponema hyodysenteriae, a cause of swine dysentery consisted of inoculation of blood agar plates containing a series of two or fourfold dilutions of the monensin urethane derivatives with tenfold dilutions of the T. hyodysenteriae strain.

[4] = Oral antihypertensive activity: blood pressure and heart rate (Table 9); type: in vivo; details: oral dose 10 mg/kg
Description: Compounds of formula I, and their pharmaceutically acceptable salts are orally active as antihypertensive agents.

rumen fluid = details: control 100

CCCCNC(=O)OCC1(O)OC(C2CC(C)C(C3(CC)CCC(C4(C)CCC5(CC(O)C(C)C(C(C)C(OC)C(C)C(=O)O)O5)O4)O3)O2)C(C)CC1C (stereo not drawn) [Monensin A, N-butylurethane]
MIC (Bacillus megaterium 8CU): 0.8 µg/mL (≈ 1.04 µM) | MIC (Bacillus sp. E 27859): 0.2 µg/mL (≈ 0.26 µM) | MIC (Bacillus sp. TA 27860): 0.4 µg/mL (≈ 0.519 µM) | MIC (Bacillus subtilis 583): 0.4 µg/mL (≈ 0.519 µM) | MIC (MycoBacterium phiel 355): 6.3 µg/mL (≈ 8.18 µM) | MIC ([1]; read-out: Minimum Inhibitory Concentration, Paceilomyces variotl 25820): 6.3 µg/mL (≈ 8.18 µM) | MIC (Sarcina lutca 9341): 1.6 µg/mL (≈ 2.08 µM) | MIC (Staph. aureus 6538): 1.6 µg/mL (≈ 2.08 µM) | MIC [2]: 3.1 µg/mL (≈ 4.03 µM) | MIC [3]: 0.2 µg/mL (≈ 0.26 µM)

CCC1(C2OC(C3OC(O)(COC(=O)NC)C(C)CC3C)CC2C)CCC(C2(C)CCC3(CC(O)C(C)C(C(C)C(OC)C(C)C(=O)O)O3)O2)O1 (stereo not drawn) [Monensin A, n-methylurethane]
MIC (Bacillus megaterium 8CU): 6.3 µg/mL (≈ 8.65 µM) | MIC (Bacillus sp. E 27859): 6.3 µg/mL (≈ 8.65 µM) | MIC (Bacillus sp. TA 27860): 12.5 µg/mL (≈ 17.2 µM) | MIC (Bacillus subtilis 583): 1.6 µg/mL (≈ 2.2 µM) | MIC (Sarcina lutca 9341): 25 µg/mL (≈ 34.3 µM) | MIC (Staph. aureus 6538): 25 µg/mL (≈ 34.3 µM) | MIC [3]: 1.6 µg/mL (≈ 2.2 µM)

COC(C(C)C(=O)O)C(C)C1OC2(CCC(C)(C3CCC(C)(C4OC(C5OC(O)(COC(=O)NCCc6ccccc6)C(C)CC5C)CC4C)O3)O2)CC(O)C1C (stereo not drawn) [Monensin B, 2-phenethylurethane]
MIC (Bacillus megaterium 8CU): 3.1 µg/mL (≈ 3.86 µM) | MIC (Bacillus sp. E 27859): 1.6 µg/mL (≈ 1.99 µM) | MIC (Bacillus sp. TA 27860): 3.1 µg/mL (≈ 3.86 µM) | MIC (Bacillus subtilis 583): 3.1 µg/mL (≈ 3.86 µM) | MIC (MycoBacterium phiel 355): 25 µg/mL (≈ 31.1 µM) | MIC (Sarcina lutca 9341): 3.1 µg/mL (≈ 3.86 µM) | MIC (Staph. aureus 6538): 6.3 µg/mL (≈ 7.84 µM) | MIC [2]: 12.5 µg/mL (≈ 15.5 µM) | MIC [3]: 0.8 µg/mL (≈ 0.995 µM) | MIC (Treponema hyodysenteriae; 48 hours, 2-phenethylurethane (natural product)): 0.4-2.0 meg/ml | MIC (Treponema hyodysenteriae; 48 hours, 2-phenethylurethane (synthetic product)): 2.0 meg/ml | Day of Maximum Change, Blood Pressure [4]: 2 days | Day of Maximum Change, Heart Rate [4]: 3 days | Maximum Change (%), Blood Pressure [4]: 13% | Maximum Change (%), Heart Rate [4]: 14% | Mean Blood Pressure at time of maximum effect ([4]; at time of maximum effect): 189 mm Hg | Mean Blood Pressure before treatment ([4]; before treatment): 216 mm Hg | Rate of Gas Production, Percent Production of Control Fermentations (rumen fluid; 10 ppm): 93% | Total VFA, Percent Production of Control Fermentations (rumen fluid; 10 ppm): 157.8% | Rate of Gas Production, Percent Production of Control Fermentations (rumen fluid; 50 ppm): 92% | Total VFA, Percent Production of Control Fermentations (rumen fluid; 50 ppm): 149.1%

COC(C(C)C(=O)O)C(C)C1OC2(CCC(C)(C3CCC(C)(C4OC(C5OC(O)(COC(=O)NC(C)c6ccccc6)C(C)CC5C)CC4C)O3)O2)CC(O)C1C [Monensin B, (R)-1-phenethylurethane]
Minimum Inhibitory Concentration (Bacillus megaterium 8CU; listed as Monensin B,(R)-1-phenethylurethane): 1.6 meg/ml | Minimum Inhibitory Concentration (Bacillus sp. E 27859; Bacillus sp. E 27859, listed as Monensin B,(R)-1-phenethylurethane): 0.4 meg/ml | Minimum Inhibitory Concentration (Bacillus sp. TA 27860; Bacillus sp. TA 27860, listed as Monensin B,(R)-1-phenethylurethane): 1.6 meg/ml | MIC (Bacillus subtilis 583): 1.6 µg/mL (≈ 1.99 µM) | MIC (MycoBacterium phiel 355): 12.5 µg/mL (≈ 15.5 µM) | Minimum Inhibitory Concentration ([1]; Paceilomyces variotl 25820, listed as Monensin B,(R)-1-phenethylurethane): 3.1 meg/ml | MIC (Sarcina lutca 9341): 3.1 µg/mL (≈ 3.86 µM) | Minimum Inhibitory Concentration (Staph. aureus 6538; Staph. aureus 6538, listed as Monensin B,(R)-1-phenethylurethane): 6.3 meg/ml | Minimum Inhibitory Concentration ([2]; Streptococcus cellulosac 3313, listed as Monensin B,(R)-1-phenethylurethane): 3.1 meg/ml | Minimum Inhibitory Concentration ([3]; Streptococcus faecium 8043, listed as Monensin B,(R)-1-phenethylurethane): 0.8 meg/ml | MIC (Treponema hyodysenteriae; Brachyspira hyodysenteriae, 48 h): 0.4 µg/mL (≈ 0.497 µM) | Rate of Gas Production, Percent Production of Control Fermentations (rumen fluid; 50 ppm): 103.3% | Total VFA, Percent Production of Control Fermentations (rumen fluid; 50 ppm): 82.7%

COC(C(C)C(=O)O)C(C)C1OC2(CCC(C)(C3CCC(C)(C4OC(C5OC(O)(COC(=O)NC(C)c6ccccc6)C(C)CC5C)CC4C)O3)O2)CC(O)C1C [Monensin B, (S)-1-phenethylurethane]
Minimum Inhibitory Concentration (Bacillus megaterium 8CU; listed as Monensin B,(S)-1-phenethylurethane): 0.4 meg/ml | Minimum Inhibitory Concentration (Bacillus sp. E 27859; Bacillus sp. E 27859, listed as Monensin B,(S)-1-phenethylurethane): 0.1 meg/ml | Minimum Inhibitory Concentration (Bacillus sp. TA 27860; Bacillus sp. TA 27860, listed as Monensin B,(S)-1-phenethylurethane): 0.2 meg/ml | Minimum Inhibitory Concentration (Bacillus subtilis 583; Bacillus subtilis 583 (NRRL)): 0.8 meg/ml | Minimum Inhibitory Concentration (MycoBacterium phiel 355; MycoBacterium phiel 355): 6.3 meg/ml | Minimum Inhibitory Concentration ([1]; Paceilomyces variotl 25820, listed as Monensin B,(S)-1-phenethylurethane): 6.3 meg/ml | Minimum Inhibitory Concentration (Sarcina lutca 9341; Sarcina lutca 9341): 1.6 meg/ml | Minimum Inhibitory Concentration (Staph. aureus 6538; Staph. aureus 6538, listed as Monensin B,(S)-1-phenethylurethane): 1.6 meg/ml | Minimum Inhibitory Concentration ([2]; Streptococcus cellulosac 3313, listed as Monensin B,(S)-1-phenethylurethane): 6.3 meg/ml | Minimum Inhibitory Concentration ([3]; Streptococcus faecium 8043, listed as Monensin B,(S)-1-phenethylurethane): 0.2 meg/ml

CC[C@@]1([C@@H]2O[C@@H]([C@H]3O[C@@](O)(CO)[C@H](C)C[C@@H]3C)C[C@@H]2C)CC[C@H]([C@]2(C)CC[C@]3(C[C@H](O)[C@@H](C)[C@@H]([C@@H](C)[C@@H](OC)[C@H](C)C(=O)O)O3)O2)O1 [Monensin]
Rate of Gas Production, Percent Production of Control Fermentations (rumen fluid; 10 ppm): 85% | Total VFA, Percent Production of Control Fermentations (rumen fluid; 10 ppm): 110.7% | Rate of Gas Production, Percent Production of Control Fermentations (rumen fluid; 50 ppm): 89% | Total VFA, Percent Production of Control Fermentations (rumen fluid; 50 ppm): 105.3%

Monensin A, 2-phenylurethane
MIC (Treponema hyodysenteriae; 48 hours): 0.4 meg/ml
